Test results reported in article PMC6389950, “Small Peptide Ligands for Targeting EGFR in Triple Negative Breast Cancer Cells” (Scientific Reports, 2019).

How the values were obtained:
Assay in all cases: Peptide array-whole cell binding assay
Type in all cases: cell-based
MCF-10A = details: non-tumorigenic cells; peptide conjugated to cellulose membrane (amino-PEG500); cells 75 × 10^3 cells/mL, 37 °C, 4 h; CyQUANT fluorescence relative to peptide 1; spots in duplicate
Text: (§1) Peptide array on the cellulose membrane was used to evaluate the binding of each peptide to different cell lines. The amino functionalized cellulose membrane provided by Intavis is acid hardened providing high stability at pH range from 1–14, permitting its use in acidic or basic conditions while maintaining membrane integrity. The PEG linker on membrane surface functions as a hydrophilic spacer between the peptide and the solid surface (membrane) reducing background signal. Cell lines were carefully selected for screening peptides as our goal here is to screen peptides with high binding/uptake by the TNBC cells. […] EGFR is overexpressed by a number of TNBC cells such as MDA-MB-468 (obtained from primary tumor source) and MDA-MB-231 (from metastasis cancer tissue)[13],[14]. While other TNBC cells like MDA-MB-436 (obtained from metastasis cancer tissue) are known to express low levels of EGFR. Non-tumorigenic epithelial MCF10A and MCF12A cells derived from the breast tissue also express low levels of EGFR[14],[34]. We selected two TNBC cell lines with relatively high expression of EGFR expression (MDA-MB-468/231) and a TNBC cell line with low level of EGFR expression (MDA-MB-436) for the peptide array screening experiments. In addition, non- tumorigenic cell line, MCF-10A was used for comparison. These four cell lines were allowed to bind the membrane by seeding the cells on the membrane and the bound cells were labeled with a fluorescent dye CyQUANT.
(§2) For the binding assay, the peptide array was incubated with the cells in sequential steps as described previously. Briefly peptide array membrane was dipped in ethanol for 30 s to remove any precipitation on it, followed by dipping in sterile PBS (pH 7.4) for another 30 min. The cells (75 × 10^3 cells/mL) were seeded directly on the membrane in a sterile plate and incubated at 37 °C for 4 h. The unbound cells were washed out with sterile PBS (pH 7.4). Thereafter the membrane was placed in a sealed bag and transferred to −80 °C freezer for 2 h. Subsequently it was defrosted at room temperature and treated with CyQUANT solution. The CyQUANT concentration was optimized based on the manufacturer’s protocol and preliminary experiments. Membrane was incubated at 37 °C for 30 min with the dye. After washing with sterile PBS and air drying using blow dryer, the membrane was scanned using Bio-rad chemidoc imager with image lab software. The settings were adjusted based on the excitation (465 nm) and emission (535 nm) wavelengths of CyQUANT dye. Epi Blue was selected for the light source (455–485 nm) and filter number 4 (blue filter, 518–546 nm) was employed. The fluorescence intensity of cancer cells read using chemidoc imager was normalized using the non-cancer cell fluorescence intensity. Eventually relative fluorescence was assessed to select peptides with high affinity to cancer cells and low or minimal binding to normal cells.

MDA-MB-436 = details: peptide conjugated to cellulose membrane (amino-PEG500), no free C-terminus; cells 75 × 10^3 cells/mL, 37 °C, 4 h; CyQUANT fluorescence relative to peptide 1; spots in duplicate
Text: as §1, §2

MDA-MB-231 = details: peptide conjugated to cellulose membrane (amino-PEG500), no free C-terminus; cells 75 × 10^3 cells/mL, 37 °C, 4 h; CyQUANT fluorescence relative to peptide 1; spots in duplicate
Text: as §1, §2

MDA-MB-468 = details: peptide conjugated to cellulose membrane (amino-PEG500), no free C-terminus; cells 75 × 10^3 cells/mL, 37 °C, 4 h; CyQUANT fluorescence relative to peptide 1; spots in duplicate
Text: as §1, §2

AHWYGYTPQNVI [Peptide 6]
Relative Cell Adhesion MCF-10A (MCF-10A): 1.1
Relative Cell Adhesion MDA-MB-436 (MDA-MB-436): 1.0
Relative Cell Adhesion MDA-MB-231 (MDA-MB-231): 1.3
Relative Cell Adhesion MDA-MB-468 (MDA-MB-468): 1.2

FHWYGYTPQNVI [Peptide 28]
Relative Cell Adhesion MCF-10A (MCF-10A): 1.2
Relative Cell Adhesion MDA-MB-436 (MDA-MB-436): 0.8
Relative Cell Adhesion MDA-MB-231 (MDA-MB-231): 1.5
Relative Cell Adhesion MDA-MB-468 (MDA-MB-468): 1.2

HWYGYTPQNVI [Peptide 20]
Relative Cell Adhesion MCF-10A (MCF-10A): 1.2
Relative Cell Adhesion MDA-MB-436 (MDA-MB-436): 1.0
Relative Cell Adhesion MDA-MB-231 (MDA-MB-231): 1.5
Relative Cell Adhesion MDA-MB-468 (MDA-MB-468): 1.2

Peptide 2: scrambled negative control sequence WQTNYIHPYVYG
Relative Cell Adhesion MCF-10A (MCF-10A): 1.0
Relative Cell Adhesion MDA-MB-436 (MDA-MB-436): 1.1
Relative Cell Adhesion MDA-MB-231 (MDA-MB-231): 1.2
Relative Cell Adhesion MDA-MB-468 (MDA-MB-468): 1.1

WXEAAYQRFL [Peptide 5, positive control, peptide 18 from a previous study, WXEAAYQRFL, reference compound]
Relative Cell Adhesion MCF-10A (MCF-10A): 1.7
Relative Cell Adhesion MDA-MB-436 (MDA-MB-436): 1.8
Relative Cell Adhesion MDA-MB-231 (MDA-MB-231): 1.7
Relative Cell Adhesion MDA-MB-468 (MDA-MB-468): 1.3

WYGYTPQNVI [Peptide 21]
Relative Cell Adhesion MCF-10A (MCF-10A): 1.2
Relative Cell Adhesion MDA-MB-436 (MDA-MB-436): 1.0
Relative Cell Adhesion MDA-MB-231 (MDA-MB-231): 1.9
Relative Cell Adhesion MDA-MB-468 (MDA-MB-468): 1.4

YAWYGYTPQNVI [Peptide 7]
Relative Cell Adhesion MCF-10A (MCF-10A): 1.0
Relative Cell Adhesion MDA-MB-436 (MDA-MB-436): 1.0
Relative Cell Adhesion MDA-MB-231 (MDA-MB-231): 1.1
Relative Cell Adhesion MDA-MB-468 (MDA-MB-468): 1.1

YGPWYNHYITQV [Peptide 3]
Relative Cell Adhesion MCF-10A (MCF-10A): 1.0
Relative Cell Adhesion MDA-MB-436 (MDA-MB-436): 1.1
Relative Cell Adhesion MDA-MB-231 (MDA-MB-231): 1.1
Relative Cell Adhesion MDA-MB-468 (MDA-MB-468): 1.0

YHAYGYTPQNVI [Peptide 8]
Relative Cell Adhesion MCF-10A (MCF-10A): 0.9
Relative Cell Adhesion MDA-MB-436 (MDA-MB-436): 0.9
Relative Cell Adhesion MDA-MB-231 (MDA-MB-231): 1.0
Relative Cell Adhesion MDA-MB-468 (MDA-MB-468): 0.8

YHWAGYTPQNVI [Peptide 9]
Relative Cell Adhesion MCF-10A (MCF-10A): 1.0
Relative Cell Adhesion MDA-MB-436 (MDA-MB-436): 1.2
Relative Cell Adhesion MDA-MB-231 (MDA-MB-231): 1.4
Relative Cell Adhesion MDA-MB-468 (MDA-MB-468): 1.3

YHWFGYTPQNVI [Peptide 29]
Relative Cell Adhesion MCF-10A (MCF-10A): 1.1
Relative Cell Adhesion MDA-MB-436 (MDA-MB-436): 1.1
Relative Cell Adhesion MDA-MB-231 (MDA-MB-231): 1.7
Relative Cell Adhesion MDA-MB-468 (MDA-MB-468): 1.2

YHWYAYTPQNVI [Peptide 10]
Relative Cell Adhesion MCF-10A (MCF-10A): 1.1
Relative Cell Adhesion MDA-MB-436 (MDA-MB-436): 1.2
Relative Cell Adhesion MDA-MB-231 (MDA-MB-231): 1.5
Relative Cell Adhesion MDA-MB-468 (MDA-MB-468): 1.3

YHWYGATPQNVI [Peptide 11]
Relative Cell Adhesion MCF-10A (MCF-10A): 1.0
Relative Cell Adhesion MDA-MB-436 (MDA-MB-436): 1.0
Relative Cell Adhesion MDA-MB-231 (MDA-MB-231): 1.3
Relative Cell Adhesion MDA-MB-468 (MDA-MB-468): 1.2

YHWYGFTPQNVI [Peptide 30]
Relative Cell Adhesion MCF-10A (MCF-10A): 1.0
Relative Cell Adhesion MDA-MB-436 (MDA-MB-436): 0.9
Relative Cell Adhesion MDA-MB-231 (MDA-MB-231): 1.5
Relative Cell Adhesion MDA-MB-468 (MDA-MB-468): 1.3

YHWYGYAPQNVI [Peptide 12]
Relative Cell Adhesion MCF-10A (MCF-10A): 1.1
Relative Cell Adhesion MDA-MB-436 (MDA-MB-436): 1.0
Relative Cell Adhesion MDA-MB-231 (MDA-MB-231): 1.3
Relative Cell Adhesion MDA-MB-468 (MDA-MB-468): 1.0

YHWYGYTAQNVI [Peptide 13]
Relative Cell Adhesion MCF-10A (MCF-10A): 1.1
Relative Cell Adhesion MDA-MB-436 (MDA-MB-436): 1.1
Relative Cell Adhesion MDA-MB-231 (MDA-MB-231): 1.5
Relative Cell Adhesion MDA-MB-468 (MDA-MB-468): 1.3

YHWYGYTPANVI [Peptide 14]
Relative Cell Adhesion MCF-10A (MCF-10A): 1.2
Relative Cell Adhesion MDA-MB-436 (MDA-MB-436): 1.2
Relative Cell Adhesion MDA-MB-231 (MDA-MB-231): 1.7
Relative Cell Adhesion MDA-MB-468 (MDA-MB-468): 1.4

YHWYGYTPQAVI [Peptide 15]
Relative Cell Adhesion MCF-10A (MCF-10A): 1.1
Relative Cell Adhesion MDA-MB-436 (MDA-MB-436): 0.9
Relative Cell Adhesion MDA-MB-231 (MDA-MB-231): 1.6
Relative Cell Adhesion MDA-MB-468 (MDA-MB-468): 1.2

YHWYGYTPQN [Peptide 19]
Relative Cell Adhesion MCF-10A (MCF-10A): 1.1
Relative Cell Adhesion MDA-MB-436 (MDA-MB-436): 1.1
Relative Cell Adhesion MDA-MB-231 (MDA-MB-231): 2.0
Relative Cell Adhesion MDA-MB-468 (MDA-MB-468): 1.3

YHWYGYTPQNAI [Peptide 16]
Relative Cell Adhesion MCF-10A (MCF-10A): 1.2
Relative Cell Adhesion MDA-MB-436 (MDA-MB-436): 1.0
Relative Cell Adhesion MDA-MB-231 (MDA-MB-231): 1.4
Relative Cell Adhesion MDA-MB-468 (MDA-MB-468): 1.1

YHWYGYTPQNV [Peptide 18]
Relative Cell Adhesion MCF-10A (MCF-10A): 1.2
Relative Cell Adhesion MDA-MB-436 (MDA-MB-436): 1.3
Relative Cell Adhesion MDA-MB-231 (MDA-MB-231): 1.9
Relative Cell Adhesion MDA-MB-468 (MDA-MB-468): 1.4

YHWYGYTPQNVA [Peptide 17]
Relative Cell Adhesion MCF-10A (MCF-10A): 1.2
Relative Cell Adhesion MDA-MB-436 (MDA-MB-436): 1.2
Relative Cell Adhesion MDA-MB-231 (MDA-MB-231): 1.6
Relative Cell Adhesion MDA-MB-468 (MDA-MB-468): 1.4

YKWYGYTPQNVI [Peptide 24]
Relative Cell Adhesion MCF-10A (MCF-10A): 1.0
Relative Cell Adhesion MDA-MB-436 (MDA-MB-436): 1.0
Relative Cell Adhesion MDA-MB-231 (MDA-MB-231): 1.4
Relative Cell Adhesion MDA-MB-468 (MDA-MB-468): 1.1

YRWYGYTPQNVI [Peptide 25]
Relative Cell Adhesion MCF-10A (MCF-10A): 1.2
Relative Cell Adhesion MDA-MB-436 (MDA-MB-436): 1.0
Relative Cell Adhesion MDA-MB-231 (MDA-MB-231): 1.9
Relative Cell Adhesion MDA-MB-468 (MDA-MB-468): 1.4
